Assay results taken from patent publication US20110028504A1, “Formulation of radioprotective alpha beta unsaturated aryl sulfones” (ONCONOVA THERAPEUTICS, INC., priority 2005, published 2011).

Columns and labels:
HFL-1 cells = test: Radioprotection of cultured normal cells, colony count after ionizing radiation; type: cell-based, human; conditions: 2.5 to 20 micromolar for 24 hrs before 10 Gy or 15 Gy ionizing radiation, colonies vs DMSO control
Procedure: HFL-1 cells, which are normal diploid lung fibroblasts, were plated into 24 well dishes at a cell density of 3000 cells per 10 mm^2 in DMEM completed with 10% fetal bovine serum and antibiotics. The test compounds listed in Table 28 were added to the cells 24 hours later in select concentrations from 2.5 to 20 micromolar, inclusive, using DMSO as a solvent. Control cells were treated with DMSO alone. The cells were exposed to the test compound or DMSO for 24 hrs. The cells were then irradiated with either 10 Gy (gray) or 15 Gy of ionizing radiation (IR) using a J.L. Shepherd Mark I, Model 30-1 Irradiator equipped with ^137cesium as a source.
After irradiation, the medium on the test and control cells was removed and replaced with fresh growth medium without the test compounds or DMSO. The irradiated cells were incubated for 96 hours and duplicate wells were trypsinized and replated onto 100 mm^2 tissue culture dishes. The replated cells were grown under normal conditions with one change of fresh medium for 3 weeks. The number of colonies from each 100 mm^2 culture dish, which represents the number of surviving cells, was determined by staining the dishes as described below.
To visualize and count the colonies derived from the clonal outgrowth of individual radioprotected cells, the medium was removed and the plates were washed one time with room temperature phosphate buffered saline. The cells were stained with a 1:10 diluted Modified Giemsa staining solution (Sigma) for 20 minutes. The stain was removed, and the plates were washed with tap water. The plates were air dried, the number of colonies from each plate were counted and the average from duplicate plates was determined.
A “+” indicates radioprotective activity of between 2- and 4.5-fold at the concentrations tested. Fold protection was determined by dividing the average number of colonies from the test plates by the average number of colonies on the control plates.

C57 black mice = test: Protection of mice from radiation toxicity by pre-treatment; type: in vivo
Procedure: C57 black mice age 10-12 weeks (Taconic) were divided into two treatment groups of 10 mice each. One group, designated the “200×2” group, received intraperitoneal injections of 200 micrograms (E)-4-carboxystyryl-4-chlorobenzylsulfone dissolved in DMSO (a 10 mg/Kg dose, based on 20 g mice) 18 and 6 hours before irradiation with 8 Gy gamma radiation. The other group, designated “500×2,” received intraperitoneal injections of 500 micrograms (E)-4-carboxystyryl-4-chlorobenzylsulfone dissolved in DMSO (a 25 mg/Kg dose, based on 20 g mice) 18 and 6 hours before irradiation with 8 Gy gamma radiation. A control group of 16 animals received 8 Gy gamma radiation alone.

rodent species = conditions: in vivo; cited from earlier work

Compound	Activity (radioprotective activity, fold protection) (HFL-1 cells)	other results
O=S(=O)(/C=C/c1ccc(F)cc1)Cc1ccc(Cl)cc1 [Compound 1, (E)-4-Fluorostyryl-4-chlorobenzylsulfone]	+ (A “+” indicates radioprotective activity of between 2- and 4.5-fold at the concentrations tested)	
O=S(=O)(/C=C\c1ccc(F)cc1)Cc1ccc(Cl)cc1 [Compound 7, (Z)-4-Fluorostyryl-4-chlorobenzylsulfone]	+ (A “+” indicates radioprotective activity of between 2- and 4.5-fold at the concentrations tested)	
O=S(=O)(/C=C/c1ccoc1)Cc1ccc(Cl)cc1Cl [Compound 8, (E)-3-Furanethenyl-2,4-dichlorobenzylsulfone]	+ (A “+” indicates radioprotective activity of between 2- and 4.5-fold at the concentrations tested)	
O=C(O)c1ccc(/C=C/S(=O)(=O)Cc2ccc(Cl)cc2)cc1 [Compound 13, (E)-4-Carboxystyryl-4-chlorobenzylsulfone]	+ (A “+” indicates radioprotective activity of between 2- and 4.5-fold at the concentrations tested)	maximum mortality rate by day 40 (C57 black mice; “200×2” group: 10 mg/Kg intraperitoneal 18 and 6 hours before 8 Gy gamma radiation): approximately 60%; mice dead at day 20 (C57 black mice; “200×2” group: 10 mg/Kg intraperitoneal 18 and 6 hours before 8 Gy gamma radiation (control 80%)): about 50%; maximum mortality rate by day 40 (C57 black mice; “500×2” group: 25 mg/Kg intraperitoneal 18 and 6 hours before 8 Gy gamma radiation): about 50%; mice dead at day 20 (C57 black mice; “500×2” group: 25 mg/Kg intraperitoneal 18 and 6 hours before 8 Gy gamma radiation (control 80%)): about 30%
(E)-2,4,6-Trimethoxystyryl-4-methoxybenzylsulfone [Compound 2]	+ (A “+” indicates radioprotective activity of between 2- and 4.5-fold at the concentrations tested)	
(E)-4-Fluorostyryl-4-chlorophenylsulfone [Compound 10]	+ (A “+” indicates radioprotective activity of between 2- and 4.5-fold at the concentrations tested)	
(E)-4-Fluorostyryl-4-cyanobenzylsulfone [Compound 6]	+ (A “+” indicates radioprotective activity of between 2- and 4.5-fold at the concentrations tested)	
(E)-4-Fluorostyryl-4-trifluoromethylbenzylsulfone [Compound 5]	+ (A “+” indicates radioprotective activity of between 2- and 4.5-fold at the concentrations tested)	
(Z)-Styryl-(E)-2-methoxy-4-ethoxystyrylsulfone [Compound 11]	+ (A “+” indicates radioprotective activity of between 2- and 4.5-fold at the concentrations tested)	
Hydroxypropyl-B-Cyclodextrin [HPCD]		toxicity (rodent species): non-toxic
